Experimental data published in ChEMBL document CHEMBL2424652, “Synthesis, characterization, and antimicrobial evaluation of novel trichalcones containing core s-triazine moiety” (2013).

Tests used:
Format in all cases: functional
[1] = Antibacterial activity against Xanthomonas citri at 200 ug/mL after 24 hrs by disc diffusion method; settings: read-out: DIZ
[2] = test system: Staphylococcus aureus; assay: Antibacterial activity against Staphylococcus aureus at 200 ug/mL after 24 hrs by disc diffusion method; settings: read-out: DIZ
[3] = test system: Pectobacterium carotovorum; assay: Antibacterial activity against Erwinia carotovora at 200 ug/mL after 24 hrs by disc diffusion method; settings: read-out: DIZ
[4] = test system: Proteus vulgaris; assay: Antibacterial activity against Proteus vulgaris at 200 ug/mL after 24 hrs by disc diffusion method; settings: read-out: DIZ
[5] = test system: Alternaria; assay: Antifungal activity against Alternaria at 200 ug/mL after 48 hrs by disc diffusion method; settings: for zone of inhibition at 200 µg/mL: read-out: DIZ
[6] = test system: Curvularia; assay: Antifungal activity against Curvularia lunata at 200 ug/mL after 48 hrs by disc diffusion method; settings: for zone of inhibition at 200 µg/mL: read-out: DIZ

For `Cc1ccc(C(=O)/C=C/c2ccc(Oc3nc(Oc4ccc(/C=C/C(=O)c5ccc(C)cc5)cc4)nc(Oc4ccc(/C=C/C(=O)c5ccc(C)cc5)cc4)n3)cc2)cc1`, the zone of inhibition at 200 µg/mL [1] was 10.1 mm, the zone of inhibition at 200 µg/mL [2] was 7.93 mm and the zone of inhibition at 200 µg/mL [3] was 8.03 mm. It also gave a zone of inhibition at 200 µg/mL [4] of 10 mm, a zone of inhibition at 200 µg/mL [5] of 5.16 mm and a zone of inhibition at 200 µg/mL [6] of 6.96 mm.
For `O=C(/C=C/c1ccc(Oc2nc(Oc3ccc(/C=C/C(=O)c4ccc([N+](=O)[O-])cc4)cc3)nc(Oc3ccc(/C=C/C(=O)c4ccc([N+](=O)[O-])cc4)cc3)n2)cc1)c1ccc([N+](=O)[O-])cc1`, the zone of inhibition at 200 µg/mL [1] was 6.1 mm, the zone of inhibition at 200 µg/mL [2] was 4.93 mm and the zone of inhibition at 200 µg/mL [3] was 6.96 mm. It also gave a zone of inhibition at 200 µg/mL [4] of 5.9 mm, a zone of inhibition at 200 µg/mL [5] of 7 mm and a zone of inhibition at 200 µg/mL [6] of 8.2 mm.
`O=C(/C=C/c1ccc(Oc2nc(Oc3ccc(/C=C/C(=O)c4cccc([N+](=O)[O-])c4)cc3)nc(Oc3ccc(/C=C/C(=O)c4cccc([N+](=O)[O-])c4)cc3)n2)cc1)c1cccc([N+](=O)[O-])c1` showed a zone of inhibition at 200 µg/mL [1] of 7.96 mm, a zone of inhibition at 200 µg/mL [2] of 7.13 mm and a zone of inhibition at 200 µg/mL [3] of 6 mm. It also gave a zone of inhibition at 200 µg/mL [4] of 10 mm, a zone of inhibition at 200 µg/mL [5] of 7.96 mm and a zone of inhibition at 200 µg/mL [6] of 6.96 mm.
Work on `COc1cc(C(=O)/C=C/c2ccc(Oc3nc(Oc4ccc(/C=C/C(=O)c5cc(OC)c(OC)c(OC)c5)cc4)nc(Oc4ccc(/C=C/C(=O)c5cc(OC)c(OC)c(OC)c5)cc4)n3)cc2)cc(OC)c1OC` yielded a zone of inhibition at 200 µg/mL [1] of 10.1 mm, a zone of inhibition at 200 µg/mL [2] of 13 mm and a zone of inhibition at 200 µg/mL [3] of 12.3 mm. For the same compound, the zone of inhibition at 200 µg/mL [4] was 11.1 mm, the zone of inhibition at 200 µg/mL [5] was 13.2 mm and the zone of inhibition at 200 µg/mL [6] was 14.1 mm.
`COc1ccc(C(=O)/C=C/c2ccc(Oc3nc(Oc4ccc(/C=C/C(=O)c5ccc(OC)c(OC)c5)cc4)nc(Oc4ccc(/C=C/C(=O)c5ccc(OC)c(OC)c5)cc4)n3)cc2)cc1OC` showed a zone of inhibition at 200 µg/mL [1] of 11.1 mm, a zone of inhibition at 200 µg/mL [2] of 9.9 mm and a zone of inhibition at 200 µg/mL [3] of 12.2 mm. It also gave a zone of inhibition at 200 µg/mL [4] of 12.3 mm, a zone of inhibition at 200 µg/mL [5] of 12.1 mm and a zone of inhibition at 200 µg/mL [6] of 12.1 mm.
`O=C(/C=C/c1ccc(Oc2nc(Oc3ccc(/C=C/C(=O)c4ccccc4)cc3)nc(Oc3ccc(/C=C/C(=O)c4ccccc4)cc3)n2)cc1)c1ccccc1` gave a zone of inhibition at 200 µg/mL [1] of 6.96 mm, a zone of inhibition at 200 µg/mL [2] of 10 mm and a zone of inhibition at 200 µg/mL [3] of 7.93 mm. It also gave a zone of inhibition at 200 µg/mL [4] of 7.83 mm, a zone of inhibition at 200 µg/mL [5] of 5.1 mm and a zone of inhibition at 200 µg/mL [6] of 6.16 mm.
`COc1ccc(C(=O)/C=C/c2ccc(Oc3nc(Oc4ccc(/C=C/C(=O)c5ccc(OC)cc5)cc4)nc(Oc4ccc(/C=C/C(=O)c5ccc(OC)cc5)cc4)n3)cc2)cc1` showed a zone of inhibition at 200 µg/mL [1] of 8.86 mm, a zone of inhibition at 200 µg/mL [2] of 7.86 mm and a zone of inhibition at 200 µg/mL [3] of 8.06 mm. It also gave a zone of inhibition at 200 µg/mL [4] of 6.96 mm, a zone of inhibition at 200 µg/mL [5] of 10.2 mm and a zone of inhibition at 200 µg/mL [6] of 13.2 mm.
Work on NYSTATIN yielded an inhibition zone (IZ) [5] of 15 mm and an inhibition zone (IZ) [6] of 15 mm.
Work on `COc1ccc(OC)c(C(=O)/C=C/c2ccc(Oc3nc(Oc4ccc(/C=C/C(=O)c5cc(OC)ccc5OC)cc4)nc(Oc4ccc(/C=C/C(=O)c5cc(OC)ccc5OC)cc4)n3)cc2)c1` yielded a zone of inhibition at 200 µg/mL [1] of 10 mm, a zone of inhibition at 200 µg/mL [2] of 9.1 mm and a zone of inhibition at 200 µg/mL [3] of 9.1 mm. For the same compound, the zone of inhibition at 200 µg/mL [4] was 7.86 mm, the zone of inhibition at 200 µg/mL [5] was 12.2 mm and the zone of inhibition at 200 µg/mL [6] was 12.2 mm.
With `O=C(/C=C/c1ccc(Oc2nc(Oc3ccc(/C=C/C(=O)c4ccc(Cl)cc4)cc3)nc(Oc3ccc(/C=C/C(=O)c4ccc(Cl)cc4)cc3)n2)cc1)c1ccc(Cl)cc1` the zone of inhibition at 200 µg/mL [1] was 10.1 mm, the zone of inhibition at 200 µg/mL [2] was 12.1 mm and the zone of inhibition at 200 µg/mL [3] was 8.06 mm. It also gave a zone of inhibition at 200 µg/mL [4] of 14 mm, a zone of inhibition at 200 µg/mL [5] of 8.03 mm and a zone of inhibition at 200 µg/mL [6] of 7.2 mm.
Compound `CC1(C)S[C@@H]2[C@H](NC(=O)Cc3ccccc3)C(=O)N2[C@H]1C(=O)O` [PENICILLIN G] has a zone of inhibition at 200 µg/mL [1] of 15 mm, a zone of inhibition at 200 µg/mL [2] of 15 mm and a zone of inhibition at 200 µg/mL [3] of 15 mm. The zone of inhibition at 200 µg/mL [4] was 15 mm.
With `O=C(/C=C/c1ccc(Oc2nc(Oc3ccc(/C=C/C(=O)c4ccc(Br)cc4)cc3)nc(Oc3ccc(/C=C/C(=O)c4ccc(Br)cc4)cc3)n2)cc1)c1ccc(Br)cc1` the zone of inhibition at 200 µg/mL [1] was 11.1 mm, the zone of inhibition at 200 µg/mL [2] was 9.96 mm and the zone of inhibition at 200 µg/mL [3] was 13 mm. For the same compound, the zone of inhibition at 200 µg/mL [4] was 11.9 mm, the zone of inhibition at 200 µg/mL [5] was 6.16 mm and the zone of inhibition at 200 µg/mL [6] was 10.1 mm.
